Calls of active or inactive are those of the source. The rule behind the calls is not given here.
Experiments:
MCF7 [1] = experiment: Induction of apoptotic cell death in human MCF7 cells at 6 to 12 uM by AnnexinV/7-AAD staining based flow cytometry; format: functional; settings: dose 6-12 µM, time 12-24 hrs, TDE = time-dependent effect
MDA-MB-231 [2] = experiment: Induction of apoptotic cell death in human MDA-MB-231 cells assessed as increase in AnnexinV-positive cells at 3 to 12 uM incubated for 2 hrs by AnnexinV/7-AAD staining based flow cytometry; format: functional; settings: dose 3-12 µM
MCF7 [3] = experiment: Induction of cell death in human MCF7 cells assessed as reduction in number of live cells at 12 uM incubated for 4 hrs by AnnexinV/7-AAD staining based flow cytometry; format: functional
MCF-10A [4] = experiment: Cytotoxicity against human MCF-10A cells assessed as reduction in cell viability incubated for 24 hrs by MTT assay; format: toxicity, cell-based
MDA-MB-231 [5] = experiment: Cytotoxicity against human MDA-MB-231 cells assessed as reduction in cell viability incubated for 24 hrs by MTT assay; format: functional, cell-based; settings: MDA-MB-231, 24 h
MCF7 [6] = experiment: Activation of AMPK in human MCF7 cells assessed as reduction in S6 phosphorylation at Ser235/236 residue at 6 to 12 uM incubated for 2 hrs by western blot analysis; format: cell-based; settings: filed as activator, dose 6-12 µM
MCF-10A [7] = experiment: Induction of apoptotic cell death in human MCF-10A cells assessed as increase in AnnexinV-positive cells at 12 uM incubated for 2 hrs by AnnexinV/7-AAD staining based flow cytometry; format: toxicity
MDA-MB-231 [8] = experiment: Activation of AMPK in human MDA-MB-231 cells assessed as increase in ACC phosphorylation at Ser79 residue at 12 uM incubated for 2 hrs by western blot analysis; format: cell-based; settings: filed as activator
MDA-MB-231 [9] = experiment: Activation of AMPK in human MDA-MB-231 cells assessed as reduction in S6 phosphorylation at Ser235/236 residue at 6 to 12 uM incubated for 2 hrs by western blot analysis; format: cell-based; settings: filed as activator, dose 6-12 µM
MCF7 [10] = experiment: Induction of cell death in human MCF7 cells assessed as proportion of live cells at 6 uM incubated for 12 hrs by AnnexinV/7-AAD staining based flow cytometry; format: functional
MCF7 [11] = experiment: Activation of AMPK in human MCF7 cells assessed as increase in AMPK phosphorylation at Thr172 residue at 12 uM incubated for 2 hrs by western blot analysis; format: cell-based; settings: filed as activator
MCF7 [12] = experiment: Activation of AMPK in human MCF7 cells assessed as reduction in mTOR phosphorylation at Ser2448 residue at 6 to 12 uM incubated for 2 hrs by western blot analysis; format: cell-based; settings: filed as activator, dose 6-12 µM
MCF7 [13] = experiment: Induction of apoptotic cell death in human MCF7 cells incubated for 12 to 24 hrs by AnnexinV/7-AAD staining based flow cytometry; format: functional; settings: dose 6-12 µM, time 12-24 hrs
MCF7 [14] = experiment: Cytotoxicity against human MCF7 cells assessed as reduction in cell viability incubated for 24 hrs by MTT assay; format: functional, cell-based; settings: MCF7, 24 h
MCF7 [15] = experiment: Cytotoxicity against human MCF7 cells assessed as reduction in cell viability at 6 uM incubated for 24 hrs by MTT assay; format: functional, cell-based
MCF7 [16] = experiment: Activation of AMPK in human MCF7 cells assessed as increase in ACC phosphorylation at Ser79 residue at 12 uM incubated for 2 hrs by western blot analysis; format: cell-based; settings: filed as activator
MCF7 [17] = experiment: Increase in ROS production in human MCF7 cells assessed as increase in ROS-positive cells at 6 to 12 uM incubated for 2 hrs by DCFDA/7-AAD staining based flow cytometry; format: functional, cell-based; settings: dose 6-12 µM
MCF7 [18] = experiment: Cytotoxicity against human MCF7 cells assessed as reduction in cell viability at 6 to 12 uM by MTT assay; format: functional, cell-based; settings: dose 6-12 µM, time 2-24 hrs, TDE = time-dependent effect
MCF7 [19] = experiment: Cytotoxicity against human MCF7 cells assessed as reduction in cell viability at 12 uM incubated for 24 hrs by MTT assay; format: functional, cell-based
MCF7 [20] = experiment: Induction of cell death in human MCF7 cells assessed as proportion of live cells at 12 uM incubated for 12 hrs by AnnexinV/7-AAD staining based flow cytometry; format: functional
MCF7 [21] = experiment: Increase in ROS production in human MCF7 cells assessed as increase in ROS-positive cells at 6 to 12 uM incubated for 4 hrs by DCFDA/7-AAD staining based flow cytometry; format: functional, cell-based; settings: dose 6-12 µM
MCF7 [22] = experiment: Cytotoxicity against human MCF7 cells assessed as reduction in cell viability incubated for 2 to 24 hrs by MTT assay; format: functional, cell-based; settings: dose 6-12 µM, time 2-24 hrs
MDA-MB-231 [23] = experiment: Increase in ROS production in human MDA-MB-231 cells assessed as increase in ROS-positive cells at 6 to 12 uM incubated for 2 to 24 hrs by DCFDA/7-AAD staining based flow cytometry; format: functional, cell-based; settings: dose 6-12 µM, time 2-24 hrs
MDA-MB-231 [24] = experiment: Activation of AMPK in human MDA-MB-231 cells assessed as increase in AMPK phosphorylation at Thr172 residue at 12 uM incubated for 2 hrs by western blot analysis; format: cell-based; settings: filed as activator
MDA-MB-231 [25] = experiment: Activation of AMPK in human MDA-MB-231 cells assessed as reduction in p70S6K phosphorylation at Thr421/Ser424 residue at 6 to 12 uM incubated for 2 hrs by western blot analysis; format: cell-based; settings: filed as activator, dose 6-12 µM
MCF7 [26] = experiment: Induction of apoptotic cell death in human MCF7 cells assessed as increase in AnnexinV-positive cells at 3 uM incubated for 2 hrs by AnnexinV/7-AAD staining based flow cytometry; format: functional
MCF7 [27] = experiment: Cytotoxicity against human MCF7 cells assessed as reduction in cell viability at 50 uM incubated for 24 hrs by MTT assay; format: functional, cell-based
MCF-10A [28] = experiment: Induction of apoptotic cell death in human MCF-10A cells assessed as increase in AnnexinV-positive cells at 1 uM incubated for 2 hrs by AnnexinV/7-AAD staining based flow cytometry; format: toxicity
MCF7 [29] = experiment: Induction of apoptotic cell death in human MCF7 cells assessed as increase in AnnexinV-positive cells at 1 uM incubated for 2 hrs by AnnexinV/7-AAD staining based flow cytometry; format: functional
MDA-MB-231 [30] = experiment: Induction of apoptotic cell death in human MDA-MB-231 cells assessed as increase in AnnexinV-positive cells at 1 uM incubated for 2 hrs by AnnexinV/7-AAD staining based flow cytometry; format: functional

CC(C)=CC1=C(OCc2cn(CC3=C(C)C(=O)c4ccccc4C3=O)nn2)C(=O)c2ccccc2C1=O
Activity (MCF7 [1]): Tde | Activity (MDA-MB-231 [2]): inactive | Activity (MCF7 [3]): Active | Activity (MCF-10A [4]): Non-Toxic | IC50 (MDA-MB-231 [5]): 11.1 µM | Activity (MCF7 [6]): Active | Activity (MCF-10A [7]): Non-Toxic | Activity (MDA-MB-231 [8]): Active | Activity (MDA-MB-231 [9]): Active | Activity (MCF7 [10]): <70% | Activity (MCF7 [11]): Active | Activity (MCF7 [12]): Active | Activity (MCF7 [13]): Dose-Dependent Effect | IC50 (MCF7 [14]): 4.4 µM | Activity (MCF7 [15]): Active | Activity (MCF7 [16]): Active | Activity (MCF7 [17]): Active | Activity (MCF7 [18]): Tde | Activity (MCF7 [19]): Active | Activity (MCF7 [20]): <90% | Activity (MCF7 [21]): inactive | Activity (MCF7 [22]): Dose-Dependent Effect | Activity (MDA-MB-231 [23]): inactive | Activity (MDA-MB-231 [24]): Active | Activity (MDA-MB-231 [25]): Active | Activity (MCF7 [26]): Active

O=C1C=C(NCc2cn(-c3ccc(C(F)(F)F)cc3)nn2)C(=O)c2ccccc21
IC50 (MCF7 [14]): 10.4 µM

CC(C)=CCC1=C(OCc2cn(C(C3=C(C)C(=O)c4ccccc4C3=O)c3ccc(Cl)cc3)nn2)C(=O)c2ccccc2C1=O (stereo unspecified)
Activity (MCF7 [27]): inactive

CC1=C(C(C)n2cc(CNC3=CC(=O)c4ccccc4C3=O)nn2)C(=O)c2ccccc2C1=O (stereo unspecified)
Activity (MCF7 [27]): inactive

CC(C)=CCC1=C(OCc2cn(CC3=C(C)C(=O)c4ccccc4C3=O)nn2)C(=O)c2ccccc2C1=O
Activity (MCF7 [27]): inactive

CC(C)=CC1=C(OCc2cn(C(C3=C(C)C(=O)c4ccccc4C3=O)c3ccccc3)nn2)C(=O)c2ccccc2C1=O (stereo unspecified)
Activity (MCF7 [19]): Active

CC1=C(C(c2ccccc2)n2cc(CNC3=CC(=O)c4ccccc4C3=O)nn2)C(=O)c2ccccc2C1=O (stereo unspecified)
Activity (MCF7 [27]): inactive

COc1cccc2c1C(=O)c1c(O)c3c(c(O)c1C2=O)C[C@@](O)(C(=O)CO)C[C@@H]3O[C@H]1C[C@H](N)[C@H](O)[C@H](C)O1 [DOXORUBICIN]
Activity (MCF-10A [28]): Toxic | Activity (MCF7 [29]): inactive | Activity (MDA-MB-231 [30]): Active

CC1=C(Cn2cc(CNC3=CC(=O)c4ccccc4C3=O)nn2)C(=O)c2ccccc2C1=O
Activity (MCF7 [19]): Active

CC(C)=CCC1=C(OCc2cn(C(C3=C(C)C(=O)c4ccccc4C3=O)c3ccc(F)cc3)nn2)C(=O)c2ccccc2C1=O (stereo unspecified)
Activity (MCF7 [27]): inactive

CC(C)=CCC1=C(OCc2cn(C(C3=C(C)C(=O)c4ccccc4C3=O)c3ccccc3)nn2)C(=O)c2ccccc2C1=O (stereo unspecified)
Activity (MCF7 [19]): Active

CCc1ccc(-n2cc(CCNC3=C(C)C(=O)c4ccccc4C3=O)nn2)cc1
IC50 (MCF7 [14]): 8.73 µM

CC(C)=CC1=C(OCc2cn(C(C3=C(C)C(=O)c4ccccc4C3=O)c3ccc(Br)cc3)nn2)C(=O)c2ccccc2C1=O (stereo unspecified)
Activity (MCF7 [27]): inactive

CC1=C(C(c2ccc(F)cc2)n2cc(CNC3=CC(=O)c4ccccc4C3=O)nn2)C(=O)c2ccccc2C1=O (stereo unspecified)
Activity (MCF7 [27]): inactive

CC(C)=CC1=C(OCc2cn(C(C3=C(C)C(=O)c4ccccc4C3=O)c3ccc(Cl)cc3)nn2)C(=O)c2ccccc2C1=O (stereo unspecified)
Activity (MCF7 [27]): inactive

CC(C)=CC1=C(OCc2cn(C(C)C3=C(C)C(=O)c4ccccc4C3=O)nn2)C(=O)c2ccccc2C1=O (stereo unspecified)
Activity (MCF7 [1]): Tde | Activity (MDA-MB-231 [2]): inactive | Activity (MCF7 [3]): Active | Activity (MCF-10A [4]): Non-Toxic | IC50 (MDA-MB-231 [5]): 9.2 µM | Activity (MCF7 [6]): Active | Activity (MCF-10A [7]): Toxic | Activity (MDA-MB-231 [8]): Active | Activity (MDA-MB-231 [9]): Active | Activity (MCF7 [10]): <75% | Activity (MCF7 [11]): Active | Activity (MCF7 [12]): Active | Activity (MCF7 [13]): Dose-Dependent Effect | IC50 (MCF7 [14]): 4.3 µM | Activity (MCF7 [15]): Active | Activity (MCF7 [16]): Active | Activity (MCF7 [17]): Active | Activity (MCF7 [18]): Tde | Activity (MCF7 [19]): Active | Activity (MCF7 [20]): <95% | Activity (MCF7 [22]): Dose-Dependent Effect | Activity (MDA-MB-231 [23]): inactive | Activity (MDA-MB-231 [24]): Active | Activity (MDA-MB-231 [25]): Active

CC1=C(C(c2ccc(Cl)cc2)n2cc(CNC3=CC(=O)c4ccccc4C3=O)nn2)C(=O)c2ccccc2C1=O (stereo unspecified)
Activity (MCF7 [27]): inactive

CC(C)=CCC1=C(OCc2cn(C(C3=C(C)C(=O)c4ccccc4C3=O)c3ccc(Br)cc3)nn2)C(=O)c2ccccc2C1=O (stereo unspecified)
Activity (MCF7 [27]): inactive

CC(C)=CCC1=C(OCc2cn(C(C)C3=C(C)C(=O)c4ccccc4C3=O)nn2)C(=O)c2ccccc2C1=O (stereo unspecified)
Activity (MCF7 [27]): inactive

CC(C)(C)c1ccc(-n2cc(CNC3=CC(=O)c4ccccc4C3=O)nn2)cc1
IC50 (MCF7 [14]): 21.2 µM

CC1=C(C(c2ccc(Br)cc2)n2cc(CNC3=CC(=O)c4ccccc4C3=O)nn2)C(=O)c2ccccc2C1=O (stereo unspecified)
Activity (MCF7 [27]): inactive

— ChEMBL document CHEMBL5576039, “Novel naphthoquinone-1H-1,2,3-triazole hybrids: Design, synthesis and evaluation as inductors of ROS-mediated apoptosis in the MCF-7 cells” (Bioorg Med Chem, 2024)
